Data as given in ChEMBL document CHEMBL1136382, “Spiro[pyrrolidine-2,2'-adamantanes]: synthesis, anti-influenza virus activity and conformational properties” (Bioorg Med Chem Lett, 2003).

How the values were obtained:
MDCK [1] = test: Minimum cytotoxic concentration required to cause a microscopically detectable alteration of MDCK, Madin-Darby canine kidney cell morphology.; type: functional, Canis lupus familiaris
MDCK [2] = test: cells; conditions: Canis lupus familiaris
Epithelial cell = test: Antiviral activity against influenza B (Hong kong/5/72) in human epithelial cells; type: functional, cell-based

C1CNC2(C1)C1CC3CC(C1)CC2C3 (stereo not given) showed an MCC50 (MDCK [1]) of over 610.5 µM, an EC50 (MDCK [2]) of 1.8 µM and an EC50 (Epithelial cell) of over 1100 µM.

Compound CC1CCC2(C3CC4CC(C3)CC2C4)N1C (stereo not given) has an MCC50 (MDCK [1]) of 55.3 µM, an EC50 (MDCK [2]) of 2.7 µM and an EC50 (Epithelial cell) of 149 µM.

In the case of CC1CCN(C)C12C1CC3CC(C1)CC2C3 (stereo not given), the MCC50 (MDCK [1]) is reported as over 60 µM, the EC50 (MDCK [2]) is reported as 12.5 µM and the EC50 (Epithelial cell) is reported as over 746 µM.

CC1CNC2(C1)C1CC3CC(C1)CC2C3 (stereo not given) gave an MCC50 (MDCK [1]) of 313.6 µM, an EC50 (MDCK [2]) of 3.3 µM and an EC50 (Epithelial cell) of 1040 µM.

CC1CCC2(N1)C1CC3CC(C1)CC2C3 (stereo not given) showed an MCC50 (MDCK [1]) of over 414 µM, an EC50 (MDCK [2]) of 2.5 µM and an EC50 (Epithelial cell) of over 1040 µM.

With CN1CCCC12C1CC3CC(C1)CC2C3 (stereo not given) the MCC50 (MDCK [1]) was 357 µM, the EC50 (MDCK [2]) was 2.9 µM and the EC50 (Epithelial cell) was over 1040 µM.

CC1CN(C)C2(C1)C1CC3CC(C1)CC2C3 (stereo not given) gave an MCC50 (MDCK [1]) of over 226 µM, an EC50 (MDCK [2]) of 3.3 µM and an EC50 (Epithelial cell) of over 746 µM.

Compound CC1CCNC12C1CC3CC(C1)CC2C3 (stereo not given) has an MCC50 (MDCK [1]) of over 280 µM, an EC50 (MDCK [2]) of 3.7 µM and an EC50 (Epithelial cell) of over 1040 µM.

NC12CC3CC(CC(C3)C1)C2 [AMANTADINE] was tested, and the MCC50 (MDCK [1]) was over 1211.8 µM, the EC50 (MDCK [2]) was 1.1 µM and the EC50 (Epithelial cell) was over 1330 µM.

NC(=O)c1ncn([C@@H]2O[C@H](CO)[C@@H](O)[C@H]2O)n1 [RIBAVIRIN] gave an MCC50 (MDCK [1]) of over 276.9 µM, an EC50 (MDCK [2]) of 3.7 µM and an EC50 (Epithelial cell) of over 1020 µM.
